Results on five compounds are retold here after patent US20260176320A1, “MODULATORS OF G-PROTEIN COUPLED RECEPTORS” (priority 2018, published 2026).

Where two headings read alike, the source gives them in different places. A value given as a limit tells only on which side of the number the result lay.

Test [1] deals with T1, GLP-1R (Homo sapiens, UniProt P43220). The experiment in a line: PathHunter β-arrestin assay. In kind it is cell-based. The following applies: PathHunter β-arrestin assay; read-out: β-arrestin activity EC50. The essentials: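 Overnight-plated cells; 0.2% BSA medium; agonist 22-pt 2× dilution series, duplicate; 90 min, 37 °C/5% CO2; detection reagent 3 h RT, dark; luminescence.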
T1 sequence (P43220 24-463): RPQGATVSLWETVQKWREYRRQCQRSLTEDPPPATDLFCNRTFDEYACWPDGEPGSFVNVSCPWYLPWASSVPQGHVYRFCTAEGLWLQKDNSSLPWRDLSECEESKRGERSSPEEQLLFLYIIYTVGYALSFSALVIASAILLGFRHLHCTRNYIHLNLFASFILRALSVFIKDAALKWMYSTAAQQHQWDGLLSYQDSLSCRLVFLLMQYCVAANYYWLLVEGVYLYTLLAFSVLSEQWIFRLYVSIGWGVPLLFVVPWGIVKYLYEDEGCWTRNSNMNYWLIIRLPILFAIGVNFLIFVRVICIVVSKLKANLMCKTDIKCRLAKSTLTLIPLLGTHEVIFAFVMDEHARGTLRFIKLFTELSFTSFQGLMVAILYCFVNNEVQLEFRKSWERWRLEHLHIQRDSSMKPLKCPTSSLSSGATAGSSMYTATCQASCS

A further test concerns the target T2, GIP-R (Homo sapiens, UniProt P48546).
T2 sequence (P48546 22-466): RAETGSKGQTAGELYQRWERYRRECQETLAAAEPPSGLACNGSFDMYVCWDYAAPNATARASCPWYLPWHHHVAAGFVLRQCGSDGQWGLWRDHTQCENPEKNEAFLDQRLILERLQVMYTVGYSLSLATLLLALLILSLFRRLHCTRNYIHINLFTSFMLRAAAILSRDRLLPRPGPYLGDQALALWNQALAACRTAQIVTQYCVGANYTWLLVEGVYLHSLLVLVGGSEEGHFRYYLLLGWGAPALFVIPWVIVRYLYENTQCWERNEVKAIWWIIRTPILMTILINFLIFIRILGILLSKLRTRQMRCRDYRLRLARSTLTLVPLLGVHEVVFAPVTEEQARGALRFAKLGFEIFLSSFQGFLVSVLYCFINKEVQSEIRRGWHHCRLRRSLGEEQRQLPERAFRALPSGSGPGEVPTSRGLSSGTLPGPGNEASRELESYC
The experiment in a line: HitHunter cAMP assay (GIP-R). The settings on record: cAMP; for Emax: read-out: (Emax) GIP-R; for EC50: read-out: EC50 GIP-R/nM. Format: cell-based. Put shortly: (§1)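 Luminescent readout of cAMP by enzyme-fragment immunocompetition gave agonist concentration-response data. Cells (10,000/well) sat in HBSS buffer containing IBMX 625 μM, HEPES 10 mM and BSA 0.2%, exposed to agonist for 30 min at room temperature.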
For orientation: cAMP levels reflect the balance of adenylyl cyclase and phosphodiesterase activity.

Test [2] deals with T1, GLP-1R. In words: HitHunter cAMP assay (GLP-1R). Format: cell-based. The settings on record: cAMP; for Emax: read-out: (Emax) GLP-1R; for EC50: read-out: EC50 GLP-1R/nM. Put shortly:
as §1

For a further test, the system named is mice. In words: Glucose tolerance test (GTT). Format: in vivo, mouse. The following applies: 24 h GTT, s.c., dose range 2-5 nmol/kg, percent of vehicle. On the procedure:
Freestyle Lite glucometer and strips; compounds to be tested; sterilized glucose solution 200 mg/ml.
Compounds were diluted in PBS from the 1 mM DMSO stocks right before injection. Body weight and baseline blood glucose level for each mouse were measured. Tails were snipped using sterile scissors; blood from tails was used to measure glucose. For 0.25 h GTT, mice were fasted for 5-6 h and injected with compound subcutaneously 15 mins before glucose injection. For 4 h GTT, mice were fasted O/N for 16 h and injected with compound subcutaneously 4 h before glucose injection. For 16 h GTT, mice were injected with compound subcutaneously 16 h before glucose injection; food was removed at the same time. For 24 h GTT, mice were injected with compound subcutaneously 24 h before glucose injection; food was removed 5-6 h before glucose injection. 20% glucose in water was prepared; the solution was sterilized by 0.2 μm-filtration. An intraperitoneal injection of glucose (2 g/kg) was given to the mouse. Continued to take blood samples from the tail. Blood glucose was measured at 10, 20, 30, 40, 60, 90, and 120 minutes after glucose injection. Between each of these time points, the mouse was returned to its cage and monitored (at least 6 replicate mice were used for each time-point). The average glucose measurements were plotted as a function of time and the area under the curve (AUC) was determined.

On to `CCCCCCCCCCCCCCCC(=O)N[C@@H](CCC(=O)NCCCC[C@H](NC(=O)[C@H](CO)NC(=O)[C@@H]1CCCN1C(=O)[C@@H]1CCCN1C(=O)[C@@H]1CCCN1C(=O)[C@H](C)NC(=O)CNC(=O)[C@H](CO)NC(=O)[C@H](CO)NC(=O)[C@@H]1CCCN1C(=O)CNC(=O)CNC(=O)[C@H](C)NC(=O)[C@H](CC(C)C)NC(=O)[C@H](CC(C)C)NC(=O)[C@H](Cc1c[nH]c2ccccc12)NC(=O)[C@H](CC(N)=O)NC(=O)[C@@H](NC(=O)[C@H](Cc1ccccc1)NC(=O)[C@H](CCC(=O)O)NC(=O)C(C)(C)NC(=O)[C@H](C)NC(=O)[C@H](C)NC(=O)[C@H](CCC(N)=O)NC(=O)[C@H](CCCCN)NC(=O)[C@H](CC(=O)O)NC(=O)[C@H](CC(C)C)NC(=O)[C@H](Cc1ccc(O)cc1)NC(=O)[C@@H](NC(=O)[C@H](CO)NC(=O)[C@H](Cc1ccc(O)cc1)NC(=O)[C@H](CC(=O)O)NC(=O)[C@H](CO)NC(=O)[C@@H](NC(=O)[C@H](Cc1ccccc1)NC(=O)[C@@H](NC(=O)CNC(=O)[C@H](CCC(=O)O)NC(=O)CCNC(=O)CN1CCCCC1=O)[C@@H](C)O)[C@@H](C)O)[C@@H](C)CC)C(C)C)C(N)=O)C(=O)O` [Compound 5], for which the EC50 at GLP-1R [1] was 10 to 1000 nM; on GIP-R (Table 3), 1 to 10 nM; on GIP-R (Table 3A), 1 to 10 nM; at GLP-1R [2] (Table 3), less than 0.1 nM; at GLP-1R [2] (Table 3A), less than 0.1 nM. Moreover, the Emax on GIP-R (Table 3) worked out at 74%; at GIP-R (Table 3A), 74%; on GLP-1R [2] (Table 3), 95%; at GLP-1R [2] (Table 3A), 95%. Further, the AUC score with mice was 2 (AUC score 2 = 26-50%).

`CCCCCCCCCCCCCCCC(=O)N[C@@H](CCC(=O)NCCCC[C@H](NC(=O)[C@H](CO)NC(=O)[C@@H]1CCCN1C(=O)[C@@H]1CCCN1C(=O)[C@@H]1CCCN1C(=O)[C@H](C)NC(=O)CNC(=O)[C@H](CO)NC(=O)[C@H](CO)NC(=O)[C@@H]1CCCN1C(=O)CNC(=O)CNC(=O)[C@H](C)NC(=O)[C@H](CC(C)C)NC(=O)[C@H](CC(C)C)NC(=O)[C@H](Cc1c[nH]c2ccccc12)NC(=O)[C@H](CC(N)=O)NC(=O)[C@@H](NC(=O)[C@H](Cc1ccccc1)NC(=O)[C@H](CCC(=O)O)NC(=O)C(C)(C)NC(=O)[C@H](C)NC(=O)[C@H](C)NC(=O)[C@H](CCC(N)=O)NC(=O)[C@H](CCCCN)NC(=O)[C@H](CC(=O)O)NC(=O)[C@H](CC(C)C)NC(=O)[C@H](Cc1ccc(O)cc1)NC(=O)[C@@H](NC(=O)[C@H](CO)NC(=O)[C@H](Cc1ccc(O)cc1)NC(=O)[C@H](CC(=O)O)NC(=O)[C@H](CO)NC(=O)[C@@H](NC(=O)[C@H](Cc1ccccc1)NC(=O)[C@@H](NC(=O)CNC(=O)[C@H](CCC(=O)O)NC(=O)C(C)(C)CC(=O)NCCN1CCCCC1=O)[C@@H](C)O)[C@@H](C)O)[C@@H](C)CC)C(C)C)C(N)=O)C(=O)O` [Compound 18]: the EC50 on GLP-1R [1] is less than 10 nM; at GIP-R (Table 3), 0.1 to 1 nM; at GIP-R (Table 3A), 0.1 to 1 nM; on GLP-1R [2] (Table 3), less than 0.1 nM; on GLP-1R [2] (Table 3A) it was less than 0.1 nM. Moreover, the Emax at GIP-R (Table 3) amounted to 80%; at GIP-R (Table 3A), 80%; on GLP-1R [2] (Table 3), 101%; on GLP-1R [2] (Table 3A), 101%. In addition, the AUC score with mice is on record as 2 (AUC score 2 = 26-50%).

On to `CCCCCCCCCCCCCCCC(=O)N[C@@H](CCC(=O)NCCCC[C@H](NC(=O)[C@H](CO)NC(=O)[C@@H]1CCCN1C(=O)[C@@H]1CCCN1C(=O)[C@@H]1CCCN1C(=O)[C@H](C)NC(=O)CNC(=O)[C@H](CO)NC(=O)[C@H](CO)NC(=O)[C@@H]1CCCN1C(=O)CNC(=O)CNC(=O)[C@H](C)NC(=O)[C@H](CC(C)C)NC(=O)[C@H](CC(C)C)NC(=O)[C@H](Cc1c[nH]c2ccccc12)NC(=O)[C@H](CC(N)=O)NC(=O)[C@@H](NC(=O)[C@H](Cc1ccccc1)NC(=O)[C@H](CCC(=O)O)NC(=O)C(C)(C)NC(=O)[C@H](C)NC(=O)[C@H](C)NC(=O)[C@H](CCC(N)=O)NC(=O)[C@H](CCCCN)NC(=O)[C@H](CC(=O)O)NC(=O)[C@H](CC(C)C)NC(=O)[C@H](Cc1ccc(O)cc1)NC(=O)[C@@H](NC(=O)[C@H](CO)NC(=O)[C@H](Cc1ccc(O)cc1)NC(=O)[C@H](CC(=O)O)NC(=O)[C@H](CO)NC(=O)[C@@H](NC(=O)[C@H](Cc1ccccc1)NC(=O)[C@@H](NC(=O)CNC(=O)[C@H](CCC(=O)O)NC(=O)CSCC(=O)NCCN1C(=O)CSC1=O)[C@@H](C)O)[C@@H](C)O)[C@@H](C)CC)C(C)C)C(N)=O)C(=O)O` [Compound 195], for which the EC50 at GLP-1R [1] was greater than 1000 nM; on GIP-R (Table 3) it was 0.1 to 10 nM; on GIP-R (Table 3A) it was 0.1 to 10 nM; on GLP-1R [2] (Table 3A) it was 0.1 to 10 nM. Also, the Emax at GIP-R (Table 3) lay in the range of 46 to 87%; on GIP-R (Table 3A), 46 to 87%; on GLP-1R [2] (Table 3), 93 to 113%; on GLP-1R [2] (Table 3A) it was 93 to 113%. In addition, the AUC score in the test on mice is 2 (AUC score 2 = 26-50%).

Consider `CCCCCCCCCCCCCCCC(=O)N[C@@H](CCC(=O)NCCCC[C@H](NC(=O)[C@H](CO)NC(=O)[C@@H]1CCCN1C(=O)[C@@H]1CCCN1C(=O)[C@@H]1CCCN1C(=O)[C@H](C)NC(=O)CNC(=O)[C@H](CO)NC(=O)[C@H](CO)NC(=O)[C@@H]1CCCN1C(=O)CNC(=O)CNC(=O)[C@H](C)NC(=O)[C@H](CC(C)C)NC(=O)[C@H](CC(C)C)NC(=O)[C@H](Cc1c[nH]c2ccccc12)NC(=O)[C@H](CC(N)=O)NC(=O)[C@@H](NC(=O)[C@H](Cc1ccccc1)NC(=O)[C@H](CCC(=O)O)NC(=O)C(C)(C)NC(=O)[C@H](C)NC(=O)[C@H](C)NC(=O)[C@H](CCC(N)=O)NC(=O)[C@H](CCCCN)NC(=O)[C@H](CC(=O)O)NC(=O)[C@H](CC(C)C)NC(=O)[C@H](Cc1ccc(O)cc1)NC(=O)[C@@H](NC(=O)[C@H](CO)NC(=O)[C@H](Cc1ccc(O)cc1)NC(=O)[C@H](CC(=O)O)NC(=O)[C@H](CO)NC(=O)[C@@H](NC(=O)[C@H](Cc1ccccc1)NC(=O)[C@@H](NC(=O)CNC(=O)[C@H](CCC(=O)O)NC(=O)CNC(=O)CCN1CCCCC1=O)[C@@H](C)O)[C@@H](C)O)[C@@H](C)CC)C(C)C)C(N)=O)C(=O)O` [Compound 1], for which the EC50 is greater than 1000 nM at GLP-1R [1]; 1 to 10 nM at GIP-R (Table 3); 10 to 100 nM at GIP-R (Table 3A); 0.1 to 1 nM at GLP-1R [2] (Table 3); 0.1 to 1 nM on GLP-1R [2] (Table 3A). Moreover, the Emax stood at 23% at GIP-R (Table 3), 23% at GIP-R (Table 3A), 97% on GLP-1R [2] (Table 3) and 97% on GLP-1R [2] (Table 3A). Further, the AUC score in the test with mice is on record as 3 (AUC score 3 = 51-75%).

Take `CCCCCCCCCCCCCCCC(=O)N[C@@H](CCC(=O)NCCCC[C@H](NC(=O)[C@H](CO)NC(=O)[C@@H]1CCCN1C(=O)[C@@H]1CCCN1C(=O)[C@@H]1CCCN1C(=O)[C@H](C)NC(=O)CNC(=O)[C@H](CO)NC(=O)[C@H](CO)NC(=O)[C@@H]1CCCN1C(=O)CNC(=O)CNC(=O)[C@H](C)NC(=O)[C@H](CC(C)C)NC(=O)[C@H](CC(C)C)NC(=O)[C@H](Cc1c[nH]c2ccccc12)NC(=O)[C@H](CC(N)=O)NC(=O)[C@@H](NC(=O)[C@H](Cc1ccccc1)NC(=O)[C@H](CCC(=O)O)NC(=O)C(C)(C)NC(=O)[C@H](C)NC(=O)[C@H](C)NC(=O)[C@H](CCC(N)=O)NC(=O)[C@H](CCCCN)NC(=O)[C@H](CC(=O)O)NC(=O)[C@H](CC(C)C)NC(=O)[C@H](Cc1ccc(O)cc1)NC(=O)[C@@H](NC(=O)[C@H](CO)NC(=O)[C@H](Cc1ccc(O)cc1)NC(=O)[C@H](CC(=O)O)NC(=O)[C@H](CO)NC(=O)[C@@H](NC(=O)[C@H](Cc1ccccc1)NC(=O)[C@@H](NC(=O)CNC(=O)[C@H](CCC(=O)O)NC(=O)CSCC(=O)NCCN1CCC(C)C1=O)[C@@H](C)O)[C@@H](C)O)[C@@H](C)CC)C(C)C)C(N)=O)C(=O)O` (single isomer, unassigned) [Compound 69]: the EC50 is greater than 1000 nM on GLP-1R [1]; 1 to 10 nM on GIP-R (Table 3); 1 to 10 nM on GIP-R (Table 3A); 0.1 to 1 nM on GLP-1R [2] (Table 3); 0.1 to 1 nM on GLP-1R [2] (Table 3A). Also, the “(Emax) GIP-R” value at GIP-R (Table 3) and on GIP-R (Table 3A) was 75% each time. In addition, the “(Emax) GLP-1R” value on GLP-1R [2] (Table 3) and on GLP-1R [2] (Table 3A) was 104% in each case. Further, the AUC score in the test on mice is listed as 2 (AUC score 2 = 26-50%).

The Emax is the greatest response seen or fitted, relative to the assay's reference.
